Biological target: T1, KDM5A (Homo sapiens, UniProt P29375)
T1 construct: Full length KDM5A enzyme was expressed and purified inhouse; made in house
Test: KDM5 enzyme assay, KDM5A HTRF (Example 463)
Type: biochemical
Settings: compounds of Examples 1-432; read-out: Example 463 Assay KDM5A HTRF IC50

T1 sequence (P29375 whole entry): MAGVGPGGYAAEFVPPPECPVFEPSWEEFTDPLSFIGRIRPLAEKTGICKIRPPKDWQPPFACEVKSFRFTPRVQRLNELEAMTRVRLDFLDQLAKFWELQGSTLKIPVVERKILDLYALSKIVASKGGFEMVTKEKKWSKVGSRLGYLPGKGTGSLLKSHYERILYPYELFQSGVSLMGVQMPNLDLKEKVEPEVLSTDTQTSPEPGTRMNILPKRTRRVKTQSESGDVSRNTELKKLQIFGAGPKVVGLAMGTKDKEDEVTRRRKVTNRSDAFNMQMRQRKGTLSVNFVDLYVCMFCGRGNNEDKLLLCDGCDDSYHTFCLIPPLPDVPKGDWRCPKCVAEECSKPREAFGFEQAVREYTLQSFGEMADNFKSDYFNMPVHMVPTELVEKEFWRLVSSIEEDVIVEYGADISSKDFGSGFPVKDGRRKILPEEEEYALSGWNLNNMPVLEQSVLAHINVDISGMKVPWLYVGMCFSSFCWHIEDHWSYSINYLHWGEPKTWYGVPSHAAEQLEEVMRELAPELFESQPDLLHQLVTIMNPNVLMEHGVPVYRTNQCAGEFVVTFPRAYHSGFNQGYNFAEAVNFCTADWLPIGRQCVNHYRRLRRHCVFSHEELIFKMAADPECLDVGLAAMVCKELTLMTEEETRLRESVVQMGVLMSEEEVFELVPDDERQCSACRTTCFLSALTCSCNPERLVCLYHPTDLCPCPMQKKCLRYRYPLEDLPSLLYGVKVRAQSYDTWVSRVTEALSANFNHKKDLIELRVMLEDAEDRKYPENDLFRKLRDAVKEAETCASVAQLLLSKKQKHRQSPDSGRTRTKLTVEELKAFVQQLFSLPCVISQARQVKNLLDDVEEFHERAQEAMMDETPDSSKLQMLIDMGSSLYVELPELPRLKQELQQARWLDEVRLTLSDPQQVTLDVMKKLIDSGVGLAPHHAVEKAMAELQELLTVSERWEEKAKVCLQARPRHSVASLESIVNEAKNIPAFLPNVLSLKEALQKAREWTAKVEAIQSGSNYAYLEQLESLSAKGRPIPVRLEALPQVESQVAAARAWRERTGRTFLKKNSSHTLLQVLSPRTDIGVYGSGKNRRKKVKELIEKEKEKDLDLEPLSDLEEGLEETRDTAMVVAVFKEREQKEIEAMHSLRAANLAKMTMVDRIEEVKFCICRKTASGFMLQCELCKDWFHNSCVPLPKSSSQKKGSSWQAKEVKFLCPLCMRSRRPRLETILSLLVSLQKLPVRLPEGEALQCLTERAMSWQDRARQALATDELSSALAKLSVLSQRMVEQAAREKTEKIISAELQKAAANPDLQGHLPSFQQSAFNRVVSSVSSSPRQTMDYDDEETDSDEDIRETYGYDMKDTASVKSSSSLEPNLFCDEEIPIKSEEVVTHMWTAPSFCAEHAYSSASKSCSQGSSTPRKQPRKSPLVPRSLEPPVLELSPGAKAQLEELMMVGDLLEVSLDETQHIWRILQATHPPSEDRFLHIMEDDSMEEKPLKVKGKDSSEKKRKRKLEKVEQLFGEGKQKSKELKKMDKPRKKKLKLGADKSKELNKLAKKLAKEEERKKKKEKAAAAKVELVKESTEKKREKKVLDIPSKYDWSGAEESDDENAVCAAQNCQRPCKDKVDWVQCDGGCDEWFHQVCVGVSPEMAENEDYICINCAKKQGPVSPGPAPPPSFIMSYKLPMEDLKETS

Row | Structure (SMILES) | IC50
1 | CC(C)c1c(-c2cnn(CC3CCCCC3)c2)[nH]c2c(C#N)cnn2c1=O [Example 127] | 13 nM
2 | CC(C)c1c(-c2cnn(Cc3cccnc3)c2)[nH]c2c(C#N)cnn2c1=O [Example 128] | 16 nM
3 | C=Cc1c(-c2ccccc2)[nH]c2c(C#N)cnn2c1=O [Example 129] | 23 nM
4 | CC(C)c1c(-c2cc3ccccc3o2)[nH]c2c(C#N)cnn2c1=O [Example 130] | 4.5 nM
5 | CC(C)c1c(/C=C/c2ccccc2)[nH]c2c(C#N)cnn2c1=O [Example 131] | 18 nM
6 | CCc1ccc(-c2[nH]c3c(C#N)cnn3c(=O)c2C(C)C)o1 [Example 132] | 7.2 nM
7 | COCCn1cc(-c2[nH]c3c(C#N)cnn3c(=O)c2C(C)C)cn1 [Example 133] | 11 nM
8 | CC(C)c1c(-c2cnn(Cc3cccc4ccccc34)c2)[nH]c2c(C#N)cnn2c1=O [Example 134] | 5.5 nM
9 | CC(C)c1c(-c2cnn(Cc3ccc(-c4ccccc4)cc3)c2)[nH]c2c(C#N)cnn2c1=O [Example 135] | 5.8 nM
10 | CC(C)c1c(-c2cccc(Oc3ccccc3)c2)[nH]c2c(C#N)cnn2c1=O [Example 136] | 9 nM
11 | CC(C)c1c(C#Cc2ccccc2)[nH]c2c(C#N)cnn2c1=O [Example 137] | 12 nM
12 | CC(C)c1c(-c2ccc(Cl)c(Cl)c2)[nH]c2c(C#N)cnn2c1=O [Example 138] | 15 nM
13 | COc1ccc(-c2[nH]c3c(C#N)cnn3c(=O)c2C(C)C)cc1Cl [Example 139] | 13 nM
14 | COc1cc(-c2[nH]c3c(C#N)cnn3c(=O)c2C(C)C)ccc1C [Example 140] | 12 nM
15 | CC(C)c1c(-c2cnn(Cc3cscn3)c2)[nH]c2c(C#N)cnn2c1=O [Example 141] | 9.3 nM
16 | CC(C)c1c(-c2ccc3[nH]ncc3c2)[nH]c2c(C#N)cnn2c1=O [Example 142] | 12 nM
17 | COc1ccc(-c2[nH]c3c(C#N)cnn3c(=O)c2C(C)C)cc1OC [Example 143] | 25 nM
18 | COc1c(C)cc(-c2[nH]c3c(C#N)cnn3c(=O)c2C(C)C)cc1C [Example 144] | 19 nM

Row | Structure (SMILES) | IC50
19 | CC(C)c1c(-c2cnn(C3COC3)c2)[nH]c2c(C#N)cnn2c1=O [Example 145] | 17 nM
20 | CC(C)c1c(-c2cnn(CCN(C)C)c2)[nH]c2c(C#N)cnn2c1=O [Example 149] | 6 nM
21 | Cc1ccc(-c2[nH]c3c(C#N)cnn3c(=O)c2C(C)C)cc1C#N [Example 150] | 14 nM
22 | CC(C)c1c(-c2ccc3c(c2)OCO3)[nH]c2c(C#N)cnn2c1=O [Example 151] | 17 nM
23 | CC(C)c1c(-c2ccc3c(c2)CCO3)[nH]c2c(C#N)cnn2c1=O [Example 152] | 14 nM
24 | CC(C)c1c(-c2cnn(Cc3cccc(F)c3)c2)[nH]c2c(C#N)cnn2c1=O [Example 154] | 6 nM
25 | CC(C)c1c(-c2cnn(Cc3cccs3)c2)[nH]c2c(C#N)cnn2c1=O [Example 155] | 9.8 nM
26 | CC(C)c1c(-c2cnn(CC(F)(F)F)c2)[nH]c2c(C#N)cnn2c1=O [Example 156] | 22 nM
27 | CC(C)c1c(-c2cnn(Cc3cccc(Cl)c3)c2)[nH]c2c(C#N)cnn2c1=O [Example 157] | 7 nM
28 | CC(C)Cn1cc(-c2[nH]c3c(C#N)cnn3c(=O)c2C(C)C)cn1 [Example 158] | 15 nM
29 | CC(C)c1c(-c2cnn(CCC(F)(F)F)c2)[nH]c2c(C#N)cnn2c1=O [Example 159] | 35 nM
30 | CC(C)c1c(-c2cnn(C(F)F)c2)[nH]c2c(C#N)cnn2c1=O [Example 160] | 19 nM
31 | CC(C)c1c(-c2cnn(CCC#N)c2)[nH]c2c(C#N)cnn2c1=O [Example 161] | 13 nM
32 | CCc1c(-c2ccoc2)n(C)c2c(C#N)cnn2c1=O [Example 162] | 64 nM
33 | CC(C)c1c(-c2cccc(F)c2)n(C)c2c(C#N)cnn2c1=O [Example 163] | 97 nM
34 | CC(C)c1c(-c2cccc(C(F)(F)F)c2)n(C)c2c(C#N)cnn2c1=O [Example 164] | 150 nM
35 | COc1cccc(-c2c(C(C)C)c(=O)n3ncc(C#N)c3n2C)c1 [Example 165] | 61 nM

From patent US10035801B2, “Pyrazolo compounds and uses thereof” (CONSTELLATION PHARMACEUTICALS, INC., priority 2013, dated 2018)
